PMC9030166, “Natural Phaeosphaeride A Derivatives Overcome Drug Resistance of Tumor Cells and Modulate Signaling Pathways” (Pharmaceuticals, 2022)

Experiments:
A549 = assay: MTT cytotoxicity, A549 non-small cell lung cancer cells; type: cell-based, human; conditions: Homo sapiens, A549, adhesive tumor culture, 48 h
From the text: (§1) Cell cultures used in the work: adhesive cultures HBL-100 cells (cells of a normal mammary gland epithelium, immortalized by the SV40 virus and acquired tumorigenicity); MCF-7 breast cancer cells; PC-3 prostate adenocarcinoma cells; HCT-116 colorectal cancer cells; non-small cell lung cancer cells A549; human embryonic kidney cells HEK293; suspension cultures (NCI-H929 and RPMI8226 multiple myeloma cells), K562 chronic myeloid leukemia cells; THP-1 acute monocytic leukemia cells; and Jurkat acute T-cell leukemia cells. We also used several primary cultures of soft tissue sarcomas at 3–4passeges, kindly provided by T.I. Fetisov (The Ethics Committee of N.N. Blokhin NMRCO, protocol code 18-28-09095 and date of approval 28 September 2018).
(§2) Modifications of cell lines: K562/i-S9 is a clone obtained after transfection of K562 cells with the ABCB1 (MDR1) gene-encoding P-glycoprotein [36]. Cells HBL-100/Dox and K562/i-S9_Dox are cells obtained by long-term selection with increasing concentrations of doxorubicin (Sigma-Aldrich, St. Louis, MO, USA) from HBL-100 and K562/i-S9 cells, respectively. MCF-7, A594 cells, and primary cultures of soft tissue sarcomas were cultured in DMEM medium (PanEko, Russia), PC-3 and HCT-116 cells and all suspension cultures in RPMI1640 medium (PanEko, Russia) supplemented with 10% fetal bovine serum (GE Healthcare LifeSciences, USA), and gentamicin at a concentration of 40 μg/mL at 37 °C and 5% CO2.
(§3) Cells MCF-7, PC-3, A549, and HCT-116, and primary cultures of STSwere seeded in 96-well plates, 6 × 10^3 cells per well in 90 μL of culture medium. Suspension cultures were seeded at a concentration of 25 × 10^3 cells per well in 135 μL of medium. The test substances were dissolved in DMSO (Applichem, Council Bluffs, IA, USA) until a concentration of 1 × 10^−^2 M was obtained; for the subsequent dilution of the substances, a serum-free culture medium was used. The next day, for adhesive cultures, and on the same day, for suspension cultures, substances were added to the plates in a volume of 10 μL (adhesive cultures) and 15 μL (suspension cultures) per well at various concentrations; each concentration was added in 3–4 repetitions. The cells were cultured in the presence of substances for 48 h. Then, MTT reagent (PanEko, Moscow, Russia) was added to the wells at a concentration of 5 mg/mL in a volume of 20 μL per well. After 1.5–2 h, the medium with the reagent was removed, and the precipitate of the crystals of formazan was dissolved in 60 μL of DMSO. The optical density was determined using a Multiskan FC spectrophotometer (Thermo Scientific, Waltham, MA, USA) at a wavelength of 540 nm.
(§4) Based on the results of the experiments, a schedule was plotted of the dependence of the percentage of surviving cells (from control) on the concentration of the compound, and the sought concentration IC50 was calculated. The experiments were carried out in 3–4 times.

NCI-H929 = assay: MTT cytotoxicity, NCI-H929 multiple myeloma cells; type: cell-based; conditions: Homo sapiens, suspension culture, 48 h
From the text: as §1, §2, §3, §4

[1] = tested on: CMT № 2 (Malignant Schwannoma); assay: MTT cytotoxicity, primary culture of soft tissue sarcoma CMT № 2; type: cell-based; conditions: Homo sapiens, 48 h
From the text: (§5) It is believed that such cultures have a molecular profile that corresponds more with cells from the human body, in comparison with that of stable cultures of tumor cells (Table 3).
as §1, §2
as §3, with “Then, MTT reagent (PanEko, Moscow, Russia) was added to the wells at a concentration of 5 mg/mL in a volume of 20 μL per well. After 1.5–2 h, the medium with the reagent was removed, and the precipitate of the crystals of formazan was dissolved in 60 μL of DMSO.” left out
(§6) Based on the results of the experiments, a schedule was plotted of the dependence of the percentage of surviving cells (from control) on the concentration of the compound, and the sought concentration IC50 was calculated. […]

[2] = tested on: CMT № 1 (Extraskeletal Ewing’s Sarcoma); assay: MTT cytotoxicity, primary culture of soft tissue sarcoma CMT № 1; type: cell-based; conditions: Homo sapiens, 48 h
From the text: as §5, §1, §2
as §3, with “Then, MTT reagent (PanEko, Moscow, Russia) was added to the wells at a concentration of 5 mg/mL in a volume of 20 μL per well. After 1.5–2 h, the medium with the reagent was removed, and the precipitate of the crystals of formazan was dissolved in 60 μL of DMSO.” left out
as §6

HCT-116 = assay: MTT cytotoxicity, HCT-116 colorectal cancer cells; type: cell-based, human; conditions: Homo sapiens, HCT-116, adhesive tumor culture, 48 h
From the text: as §1, §2, §3, §4

THP-1 = assay: MTT cytotoxicity, THP-1 acute monocytic leukemia cells; type: cell-based; conditions: Homo sapiens, suspension culture, 48 h
From the text: as §1, §2, §3, §4

[3] = tested on: CMT № 3 (Epithelial Sarcoma (Metastasis)); assay: MTT cytotoxicity, primary culture of soft tissue sarcoma CMT № 3; type: cell-based; conditions: Homo sapiens, 48 h
From the text: as §5, §1, §2
as §3, with “Then, MTT reagent (PanEko, Moscow, Russia) was added to the wells at a concentration of 5 mg/mL in a volume of 20 μL per well. After 1.5–2 h, the medium with the reagent was removed, and the precipitate of the crystals of formazan was dissolved in 60 μL of DMSO.” left out
as §6

K562 = assay: MTT cytotoxicity, K562 chronic myeloid leukemia cells; type: cell-based; conditions: Homo sapiens
From the text: as §1, §2, §3, §4

MCF-7 = assay: MTT cytotoxicity, MCF-7 breast cancer cells; type: cell-based; conditions: Homo sapiens, MCF7, adhesive tumor culture, 48 h
From the text: as §1, §2, §3, §4

HEK293 = assay: MTT cytotoxicity, human embryonic kidney cells HEK293; type: cell-based; conditions: 48 h
From the text: as §1, §3, §4

RPMI8226 = assay: MTT cytotoxicity, RPMI8226 multiple myeloma cells; type: cell-based; conditions: Homo sapiens, RPMI-8226, suspension culture, 48 h
From the text: as §1, §2, §3, §4

Jurkat = assay: MTT cytotoxicity, Jurkat acute T-cell leukemia cells; type: cell-based; conditions: Homo sapiens, suspension culture, 48 h
From the text: as §1, §2, §3, §4

PC3 = assay: MTT cytotoxicity, PC-3 prostate adenocarcinoma cells; type: cell-based, human; conditions: Homo sapiens, PC-3, adhesive tumor culture, 48 h
From the text: as §1, §2, §3, §4

HBL-100/Dox = assay: MTT cytotoxicity, resistant HBL-100/Dox cells; type: cell-based, human; conditions: for IC50: Homo sapiens, HBL-100, resistant version, MTT, 48 h
From the text: At the next stage, the cytotoxic activity of compounds 1, 2, and 9 (Scheme 2) was investigated on several pairs of cell lines that differ in the expression of P-gp and the method by which they were obtained. […] K562/i-S9_Dox cells were obtained from K562/i-S9 by selection with low concentrations of doxorubicin to increase P-gp expression.
as §2, §3
The experiments were carried out in 3–4 times.

K562/i-S9 = assay: MTT cytotoxicity, resistant K562/i-S9 cells (ABCB1 transfected); type: cell-based, human
From the text: (§7) At the next stage, the cytotoxic activity of compounds 1, 2, and 9 (Scheme 2) was investigated on several pairs of cell lines that differ in the expression of P-gp and the method by which they were obtained. K562/i-S9 cells are the result of the ABCB1 transfection into K562 cells, which increases P-gp expression, but should not seriously affect other signaling pathways that could lead to drug resistance. K562/i-S9_Dox cells were obtained from K562/i-S9 by selection with low concentrations of doxorubicin to increase P-gp expression. Subline HBL-100/Dox is a derivative of HBL-100 cells, obtained by long-term selection with increasing concentrations of doxorubicin, which led not only to an increase in P-gp expression, but also to a change in the signaling pathways in this subline. Cells of the K562/i-S9_Dox subline express the highest level of P-gp: 94.7% ± 2.3 (p < 0.0001 relative to K562, and p = 0.04 relative to K562/i-S9). In cells of the K562/i-S9 line, the expression of P-gp is 80% ± 8.2 (p < 0.0001 relative to K562). At 0.7% ± 0.5, P-gp is practically not expressed in K562 cells (Figure 1).
as §2, §3, §4

HBL-100 = assay: MTT cytotoxicity, sensitive HBL-100 cells; type: cell-based; conditions: Homo sapiens, 48 h
From the text: as §1, §3, §4

K562/i-S9_Dox = assay: MTT cytotoxicity, resistant K562/i-S9_Dox cells (P-gp overexpression); type: cell-based, human
From the text: as §7, §2, §3, §4

[4] = K562, suspension culture, 48 h (Table 2)

Compound	IC50 (A549)	IC50 (NCI-H929)	IC50 (HCT-116)	IC50 (THP-1)	IC50 (K562; [4])	IC50 (MCF-7)	IC50 (HEK293)	IC50 (RPMI8226)	IC50 (Jurkat)	IC50 (PC3)	IC50 (HBL-100/Dox)	IC50 (HBL-100)	also measured
C=C1C2=C(C(=O)N1OC)[C@@H](N(C)CCO)[C@@](C)(O)[C@H](CCCCC)O2 [Compound 8, (2S,3R,4R)-3-hydroxy-4-[(2-hydroxyethyl)(methyl)amino]-6-methoxy-3-methyl-7-methylene-2-pentyl-3,4,6,7-tetrahydropyrano[2,3-c]pyrrol-5(2H)-one]	16.3 ± 0.9 µM	0.9 ± 0.3 µM	7.5 ± 1 µM	1.8 ± 0.2 µM	3.4 ± 0.3 µM	1.8 ± 0.4 µM	3.8 ± 0.2 µM	1.5 ± 0.4 µM	1 ± 0.3 µM	3.3 ± 0.6 µM			IC50 [1]: 2.3 ± 0.8 µM; IC50 [2]: 3.9 ± 0.8 µM; IC50 [3]: 4.8 ± 0.5 µM
COc1cccc2c1C(=O)c1c(O)c3c(c(O)c1C2=O)C[C@@](O)(C(=O)CO)C[C@@H]3O[C@H]1C[C@H](N)[C@H](O)[C@H](C)O1 [Doxorubicin, doxorubicin, reference compound]											128 ± 7.4 µM	0.23 ± 0.03 µM	resistance of HBL-100/Dox cells relative to HBL-100 (HBL-100/Dox; ratio of IC50 values, Table 5): 556 times; IC50 (K562/i-S9; Homo sapiens, K562i/S9, resistant version, ABCB1 transfected, MTT, 48 h): 3.9 ± 1.6 µM; resistance of K562/i-S9 cells relative to K562 (K562/i-S9; ratio of IC50 values, Table 4): 11 times; IC50 (K562; sensitive K562 cells (Table 4), 48 h): 0.36 ± 0.17 µM; IC50 (K562/i-S9_Dox; Homo sapiens, K562, resistant version, doxorubicin selected, MTT, 48 h): 10.3 ± 1.2 µM; resistance of K562/i-S9_Dox cells relative to K562 (K562/i-S9_Dox; ratio of IC50 values, Table 4): 28 times; resistance of K562/i-S9_Dox relative to K562/i-S9 (K562/i-S9_Dox; ratio of IC50 values, Table 4): 2.6 times
COc1cc([C@@H]2c3cc4c(cc3[C@@H](O[C@@H]3O[C@@H]5CO[C@@H](C)O[C@H]5[C@H](O)[C@H]3O)[C@H]3COC(=O)[C@H]23)OCO4)cc(OC)c1O [Etoposide, etoposide, reference compound]	65.3 ± 5.2 µM	1.4 ± 0.5 µM	21 ± 9.9 µM	1.8 ± 0.2 µM	5.5 ± 3 µM	8.9 ± 2.3 µM	2 ± 0.5 µM	7.2 ± 1.9 µM	0.9 ± 0.3 µM	27.1 ± 3.2 µM	111 ± 8.3 µM	4.7 ± 0.9 µM	
